Source: patent US20110229521A1, “NUTRITIONAL SUPPORT OF THE IMMUNE SYSTEM DURING ANTI-CANCER TREATMENT” (priority 2008, published 2011)

Tests used:
[1] = test system: γδ T cells; details: acid hydrolysed, diluted in media; peripheral blood mononuclear cells; cited from earlier work
[2] = Body weight, haematological evaluation and flow cytometry of tumor-bearing mice on supplemented diets with chemotherapy (Example 2); assay type: in vivo, C57BL/6 (H-2b) mice; details: for Global lymphocyte population: following chemotherapy
Description: (§1) Mice. […] The animals were distributed into 7 different group diets. There was a control group that received the diet AIN 93 for adult rodents (maintenance). […] Control animals without chemotherapeutic treatment were run in parallel for all tested diets. Body weight was assessed every two days. Blood samples were obtained at day 2, 4 and 10 after the chemo-treatment and at sacrifice (14 or 28 days). An autopsy was performed and tumor mass was assessed.
Haematological evaluation.
Flow cytometric analysis.

[3] = test system: MCA-OVA tumor cells; assay: Tumor growth evaluation by caliper, supplemented diets with or without chemotherapy (Example 2); assay type: in vivo, C57BL/6 (H-2b) mice
Description: as §1
(§2) Cancer Cell Lines. Methylcholanthrene (MCA) induced sarcoma cell line expressing the exogenous antigen ovalbumin (OVA) was grown in DMEM or RPMI 1640 supplemented with 2 mM L-glutamine, 10 mM HEPES, 20 μM 2-mercaptoethanol, 150 U/mL streptomycin, 200 U/mL penicillin, and 10% heat-inactivated FBS. 1×10 ^6 tumor cells were injected in the flank of the mice 6 days prior to the chemotherapy.
Tumor growth evaluation. Growth of tumors was monitored every 2 d by using calipers, and tumor volume was calculated by using the formula length×width×width×0.52 mm^3.

[4] = Body weight, haematological evaluation and flow cytometry of tumor-bearing mice after chemotherapy (Example 1)
Description: Mice. Inbred eight-week-old C57BL/6 (H-2b) mice were used in the experiments. Mice were inoculated subcutaneously (s.c.) on the left flank with 1×10 ^6 tumor cells, and tumor growth was monitored every 2 days by caliper measurement. 6 days after the tumor inoculation the animals were treated either with oxaliplatin or doxorubicin. Tumor growth was monitored every two days after the chemotherapeutic treatment and they were sacrificed after two weeks of tumor implantation. Some experiments were carried out until 28 days post-chemo to better assess tumor growth.
Body weight was assessed every two days until sacrifice.
Blood samples were obtained at day 2 and 4 after the chemo-treatment, at day 10 and at sacrifice (14 or 28 days). An autopsy was performed and tumoral mass was assessed.
Haematological evaluation. Red blood cell enumeration, hemoglobin and hematocrit were measured at 2, 4, 10, 14 and 28 days.
White blood cell counts and differential leukocyte formulation were examined at the same time points. Blood samples were used in addition to determine immune cell populations.
Flow cytometric analysis. Cell subset analysis of the CD11c^+, CD11b^+Gr-1^+ and CD11b^+Gr-1^−, CD14^+, CD19^+, CD16^+, CD56^+, CD3^+, CD8^+, CD4^+ was performed. The battery of antibodies used permitted the evaluation of: B and T cell subsets NK, NKT cells, macrophages, dendritic cells, granulocytes.

[5] = test system: Methylcholanthrene (MCA) induced sarcoma cell line expressing the exogenous antigen for ovalbumin (OVA); assay: Tumor growth evaluation by caliper after chemotherapy (Example 1); assay type: in vivo, C57BL/6 (H-2b) mice
Description: as §2, with “antigen for” for “antigen”, “were” for “was”, “1×10^6” for “1×10 ^6”
Growth of tumors was monitored every 2 d by using calipers, and tumor volume was calculated by using the formula length×width×width×0.52 mm^3.

SMILES: CCNC(=O)CC[C@H](N)C(=O)O [L-theanine]
- expansion of γδ T cells [1]: 15 fold

SMILES: N=C(N)NCCC[C@H](N)C(=O)O [arginine, L-arginine]
- loss of CD3+ cells ([2]; after chemotherapy, supplemented diet): partially modulated
- immune cell population / concentration ([2]; second phase (tumor-induced toxicity)): increase immune cell concentration
- fall of erythrocytes after chemotherapy ([2]; supplemented diet, days 6 to 10 post-chemo, FIG. 3): prevented the marked fall of erythrocytes
- tumor size ([3]; combination with the chemotherapy treatment versus chemotherapy alone, FIG. 4): further reduced the tumor size
- progression of the implanted tumor ([3]; supplemented diet compared to other groups): delayed progression

SMILES: NC(=O)NCCC[C@H](N)C(=O)O [citrulline, L-citrulline]
- Global lymphocyte population ([2]; supplemented diet): less depressed following chemotherapy

SMILES: NC(=O)CC[C@H](N)C(=O)O [glutamine]
- Global lymphocyte population ([2]; supplemented diet): less depressed following chemotherapy

SMILES: O=C1[O][Pt]2([NH][C@@H]3CCCC[C@H]3[NH]2)[O]C1=O [oxaliplatin]
- white blood cell counts [4]: higher that the baseline counts
- tumor growth rate versus control (no chemotherapy) ([5]; treatment group oxa-10, FIG. 2, divergence at day 14): slower rate than the control
- tumor growth rate versus control (no chemotherapy) ([5]; treatment group oxa-12.5, FIG. 2, divergence at day 14): slower rate than the control
